Data as given in ChEMBL document CHEMBL2150926 (J Med Chem, 2011).
≈ marks a conversion by molar mass, not a printed value.

Experiments:
[1] = target: Protein kinase C theta type (Homo sapiens, UniProt Q04759); assay: Inhibition of PKCtheta by scintillation proximity assay
[2] = target: Protein kinase C alpha type (Homo sapiens, UniProt P17252); assay: Inhibition of PKCalpha by scintillation proximity assay
[3] = target: Protein kinase C beta type (Homo sapiens, UniProt P05771); assay: Inhibition of PKCbeta-1 by scintillation proximity assay
[4] = target: T1, Protein kinase C epsilon type (Homo sapiens, UniProt Q02156); assay: Inhibition of PKCepsilon by scintillation proximity assay
T1 sequence (Q02156 whole entry): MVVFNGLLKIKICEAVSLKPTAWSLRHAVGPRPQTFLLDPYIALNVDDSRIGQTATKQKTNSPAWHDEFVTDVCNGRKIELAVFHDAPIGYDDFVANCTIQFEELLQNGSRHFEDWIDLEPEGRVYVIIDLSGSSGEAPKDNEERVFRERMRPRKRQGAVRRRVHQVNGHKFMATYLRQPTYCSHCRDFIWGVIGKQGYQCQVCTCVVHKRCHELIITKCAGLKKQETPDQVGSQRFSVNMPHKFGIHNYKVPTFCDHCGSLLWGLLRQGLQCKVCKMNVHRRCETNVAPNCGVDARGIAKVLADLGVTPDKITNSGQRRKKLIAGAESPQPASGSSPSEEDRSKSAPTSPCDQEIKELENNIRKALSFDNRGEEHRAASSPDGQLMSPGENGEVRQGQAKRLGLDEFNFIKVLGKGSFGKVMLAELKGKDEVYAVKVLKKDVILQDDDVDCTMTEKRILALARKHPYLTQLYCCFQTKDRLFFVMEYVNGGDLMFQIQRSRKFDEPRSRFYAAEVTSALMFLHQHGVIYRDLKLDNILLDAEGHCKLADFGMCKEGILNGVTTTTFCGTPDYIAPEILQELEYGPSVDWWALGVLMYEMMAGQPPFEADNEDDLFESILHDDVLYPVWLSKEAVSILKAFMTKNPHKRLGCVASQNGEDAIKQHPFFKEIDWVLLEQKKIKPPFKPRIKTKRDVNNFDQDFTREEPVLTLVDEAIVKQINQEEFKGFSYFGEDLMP

[5] = system: Blood; assay: AUC (0 to 24 hrs) in Wistar rat blood at 30 mg/kg, po administered as single dose; assay type: ADME, organism-based; set-up: time < 24 hr, dose 30 mg/kg, route oral; conditions: in vivo
[6] = target: Protein kinase C eta type (Homo sapiens, UniProt P24723); assay: Inhibition of PKCeta by scintillation proximity assay
[7] = Immunosuppressive activity in mouse lymphocytes assessed as alloantigen-induced T cell proliferation by mixed lymphocyte reaction assay; assay type: functional, cell-based
[8] = Immunosuppressive activity in human lymphocytes assessed as alloantigen-induced T cell proliferation by mixed lymphocyte reaction assay; assay type: functional, cell-based
[9] = target: Protein kinase C delta type (Homo sapiens, UniProt Q05655); assay: Inhibition of PKCdelta by scintillation proximity assay
[10] = system: Rattus norvegicus; assay: AUC (0 to 24 hrs) in Wistar rat at 30 mg/kg, po administered as single dose; assay type: ADME, organism-based, Plasma; set-up: time < 24 hr, dose 30 mg/kg, route oral; conditions: in vivo
[11] = Intrinsic clearance in OFA rat liver microsomes at 20 mg/kg, po; assay type: ADME, Microsome; set-up: dose 20 mg/kg, route oral; conditions: read-out: CLH
[12] = Intrinsic solubility of the compound at pH 6.8; assay type: physicochemical; conditions: buffer, read-out: Intrinsic_solubility
[13] = system: Rattus norvegicus; assay: Dose normalized AUC (0 to infinity) in OFA rat 20 mg/kg, po; assay type: ADME, organism-based; set-up: dose 20 mg/kg, route oral; conditions: in vivo
[14] = Total plasma clearance in OFA rat at 5 mg/kg, iv; assay type: ADME, organism-based; set-up: dose 5 mg/kg, route intravenous
[15] = Volume of distribution at steady state in OFA rat at 5 mg/kg, iv; assay type: ADME, organism-based; set-up: dose 5 mg/kg, route intravenous; conditions: in vivo, read-out: Vdss
[16] = Lipophilicity, log D of the compound at pH 6.8; assay type: physicochemical; conditions: buffer
[17] = system: P-gp (human); assay: Efflux ratio of permeability from basolateral to apical to apical to basolateral in MDCK cells transfected with human p-gp gene; assay type: ADME, cell-based, Canis lupus familiaris; conditions: dog, MDCK-MDR1
[18] = Tmax in OFA rat at 20 mg/kg, po; assay type: ADME, organism-based; set-up: dose 20 mg/kg, route oral; conditions: in vivo
[19] = Elimination half life in OFA rat at 5 mg/kg, iv; assay type: ADME, organism-based; set-up: dose 5 mg/kg, route intravenous; conditions: in vivo, read-out: beta t1/2 (converted)
[20] = system: Rattus norvegicus; assay: Dose normalized AUC (0 to infinity) in OFA rat at 5 mg/kg, iv; assay type: ADME, organism-based; set-up: dose 5 mg/kg, route intravenous; conditions: in vivo
[21] = Octanol-water partition coefficient, log P of the compound; assay type: physicochemical
[22] = Oral bioavailability in OFA rat at 20 mg/kg; assay type: ADME, organism-based; conditions: in vivo
[23] = AUC (0 to 24 hrs) in Wistar rat mesenteric lymph node at 30 mg/kg, po administered as single dose; assay type: ADME, organism-based; set-up: time < 24 hr, dose 30 mg/kg, route oral; conditions: in vivo
[24] = Elimination half life in cynomolgus monkey at 5 mg/kg, iv; assay type: ADME, organism-based, Macaca fascicularis; set-up: dose 5 mg/kg, route intravenous; conditions: in vivo, read-out: beta t1/2 (converted)
[25] = Tmax in cynomolgus monkey at 20 mg/kg, po; assay type: ADME, organism-based, Macaca fascicularis; set-up: dose 20 mg/kg, route oral; conditions: in vivo
[26] = Volume of distribution at steady state in cynomolgus monkey at 5 mg/kg, iv; assay type: ADME, organism-based, Macaca fascicularis; set-up: dose 5 mg/kg, route intravenous; conditions: in vivo, read-out: Vdss
[27] = system: Spleen; assay: AUC (0 to 24 hrs) in Wistar rat spleen at 30 mg/kg, po administered as single dose; assay type: ADME, organism-based; set-up: time < 24 hr, dose 30 mg/kg, route oral; conditions: in vivo
[28] = system: Mus musculus; assay: Dose normalized AUC (0 to infinity) in Balb/c mouse at 30 mg/kg, po; assay type: ADME, organism-based; set-up: dose 30 mg/kg, route oral; conditions: in vivo
[29] = Solubility of the compound in simulated gastric fluid at pH 2.0; assay type: physicochemical
[30] = Solubility of the compound in fed state simulated intestinal fluid at pH 5.8; assay type: physicochemical
[31] = Oral bioavailability in Balb/c mouse at 30 mg/kg; assay type: ADME, organism-based; conditions: in vivo
[32] = Oral bioavailability in cynomolgus monkey at 20 mg/kg; assay type: ADME, organism-based, Macaca fascicularis; conditions: in vivo
[33] = system: Cynomolgus monkey; assay: Dose normalized AUC (0 to infinity) in cynomolgus monkey at 5 mg/kg, iv; assay type: ADME, organism-based, Macaca fascicularis; set-up: dose 5 mg/kg, route intravenous; conditions: in vivo
[34] = system: Cynomolgus monkey; assay: Dose normalized AUC (0 to infinity) in cynomolgus monkey at 20 mg/kg, po; assay type: ADME, organism-based, Macaca fascicularis; set-up: dose 20 mg/kg, route oral; conditions: in vivo
[35] = Tmax in Balb/c mouse at 30 mg/kg, po; assay type: ADME, organism-based; set-up: dose 30 mg/kg, route oral; conditions: in vivo
[36] = Intrinsic clearance in cynomolgus monkey liver microsomes at 20 mg/kg, po; assay type: ADME, Macaca fascicularis, Microsome; set-up: dose 20 mg/kg, route oral; conditions: read-out: CLH
[37] = Fraction unbound in OFA rat plasma at 20 mg/kg, po; assay type: ADME, organism-based; set-up: dose 20 mg/kg, route oral
[38] = system: Thymus; assay: AUC (0 to 24 hrs) in Wistar rat thymus at 30 mg/kg, po administered as single dose; assay type: ADME, organism-based; set-up: time < 24 hr, dose 30 mg/kg, route oral; conditions: in vivo
[39] = Apparent permeability in human Caco2 cells; assay type: ADME, cell-based; conditions: Caco-2
[40] = Solubility of the compound in fasted state simulated intestinal fluid at pH 6.5; assay type: physicochemical
[41] = Fraction unbound in cynomolgus monkey plasma at 20 mg/kg, po; assay type: ADME, organism-based, Macaca fascicularis; set-up: dose 20 mg/kg, route oral
[42] = Elimination half life in Balb/c mouse at 5 mg/kg, iv; assay type: ADME, organism-based; set-up: dose 5 mg/kg, route intravenous; conditions: in vivo, read-out: beta t1/2 (converted)
[43] = Intrinsic clearance in Balb/c mouse liver microsomes at 30 mg/kg, po; assay type: ADME, Microsome; set-up: dose 30 mg/kg, route oral; conditions: read-out: CLH
[44] = target: Cytochrome P450 3A4 (Homo sapiens, UniProt P08684); assay: Inhibition of CYP3A4-catalyzed midazolam 1'-hydroxylation in human liver microsomes; assay type: ADME, Microsome
[45] = Total plasma clearance in cynomolgus monkey at 5 mg/kg, iv; assay type: ADME, organism-based, Macaca fascicularis; set-up: dose 5 mg/kg, route intravenous
[46] = Total plasma clearance in Balb/c mouse at 5 mg/kg, iv; assay type: ADME, organism-based; set-up: dose 5 mg/kg, route intravenous
[47] = system: Mus musculus; assay: Drug metabolism in po dosed Balb/c mouse assessed as 3-(1H-Indol-3-yl)-4-(2-piperazin-1-yl-quinazolin-4-yl)pyrrole-2,5-dione level relative to parent compound; assay type: ADME, organism-based; conditions: in vivo
[48] = system: Mus musculus; assay: Dose normalized AUC (0 to infinity) in Balb/c mouse at 5 mg/kg, iv; assay type: ADME, organism-based; set-up: dose 5 mg/kg, route intravenous; conditions: in vivo
[49] = Volume of distribution at steady state in Balb/c mouse at 5 mg/kg, iv; assay type: ADME, organism-based; set-up: dose 5 mg/kg, route intravenous; conditions: in vivo, read-out: Vdss

Sequence of Protein kinase C theta type (Q04759 whole entry): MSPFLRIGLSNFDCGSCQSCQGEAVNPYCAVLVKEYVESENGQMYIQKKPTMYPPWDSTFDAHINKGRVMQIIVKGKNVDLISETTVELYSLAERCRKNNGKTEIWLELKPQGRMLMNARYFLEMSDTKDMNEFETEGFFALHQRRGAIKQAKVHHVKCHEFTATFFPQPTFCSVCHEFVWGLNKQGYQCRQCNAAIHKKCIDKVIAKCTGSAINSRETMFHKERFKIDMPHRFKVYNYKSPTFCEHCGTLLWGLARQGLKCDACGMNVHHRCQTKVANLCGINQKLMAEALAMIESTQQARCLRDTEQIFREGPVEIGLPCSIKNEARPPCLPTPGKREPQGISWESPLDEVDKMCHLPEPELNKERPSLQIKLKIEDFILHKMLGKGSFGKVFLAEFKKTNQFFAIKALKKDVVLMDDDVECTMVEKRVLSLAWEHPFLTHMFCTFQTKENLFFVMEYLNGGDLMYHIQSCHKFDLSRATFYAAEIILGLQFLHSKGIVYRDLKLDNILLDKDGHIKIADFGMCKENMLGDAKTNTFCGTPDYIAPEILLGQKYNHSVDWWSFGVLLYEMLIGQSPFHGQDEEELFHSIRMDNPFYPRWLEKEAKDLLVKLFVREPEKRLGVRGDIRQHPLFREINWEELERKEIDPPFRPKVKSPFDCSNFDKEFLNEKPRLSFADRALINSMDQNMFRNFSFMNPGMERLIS
Sequence of Protein kinase C delta type (Q05655 whole entry): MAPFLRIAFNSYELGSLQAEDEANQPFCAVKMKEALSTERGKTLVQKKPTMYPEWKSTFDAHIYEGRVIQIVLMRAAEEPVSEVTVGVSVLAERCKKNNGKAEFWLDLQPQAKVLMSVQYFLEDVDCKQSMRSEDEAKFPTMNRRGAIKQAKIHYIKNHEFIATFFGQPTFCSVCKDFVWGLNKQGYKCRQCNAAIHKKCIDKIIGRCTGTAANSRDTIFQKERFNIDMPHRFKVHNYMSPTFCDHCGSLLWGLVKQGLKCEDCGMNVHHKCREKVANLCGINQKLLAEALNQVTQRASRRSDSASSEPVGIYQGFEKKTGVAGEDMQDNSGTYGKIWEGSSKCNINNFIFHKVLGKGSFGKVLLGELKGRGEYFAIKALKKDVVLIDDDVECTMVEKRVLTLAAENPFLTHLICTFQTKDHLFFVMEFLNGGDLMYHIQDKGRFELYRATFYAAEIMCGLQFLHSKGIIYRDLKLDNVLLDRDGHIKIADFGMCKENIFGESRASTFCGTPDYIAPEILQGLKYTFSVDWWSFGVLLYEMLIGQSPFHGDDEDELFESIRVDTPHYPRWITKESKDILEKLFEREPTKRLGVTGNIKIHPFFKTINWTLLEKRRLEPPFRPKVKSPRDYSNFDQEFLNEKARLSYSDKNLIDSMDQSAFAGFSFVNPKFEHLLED
Sequence of Protein kinase C beta type (P05771 whole entry): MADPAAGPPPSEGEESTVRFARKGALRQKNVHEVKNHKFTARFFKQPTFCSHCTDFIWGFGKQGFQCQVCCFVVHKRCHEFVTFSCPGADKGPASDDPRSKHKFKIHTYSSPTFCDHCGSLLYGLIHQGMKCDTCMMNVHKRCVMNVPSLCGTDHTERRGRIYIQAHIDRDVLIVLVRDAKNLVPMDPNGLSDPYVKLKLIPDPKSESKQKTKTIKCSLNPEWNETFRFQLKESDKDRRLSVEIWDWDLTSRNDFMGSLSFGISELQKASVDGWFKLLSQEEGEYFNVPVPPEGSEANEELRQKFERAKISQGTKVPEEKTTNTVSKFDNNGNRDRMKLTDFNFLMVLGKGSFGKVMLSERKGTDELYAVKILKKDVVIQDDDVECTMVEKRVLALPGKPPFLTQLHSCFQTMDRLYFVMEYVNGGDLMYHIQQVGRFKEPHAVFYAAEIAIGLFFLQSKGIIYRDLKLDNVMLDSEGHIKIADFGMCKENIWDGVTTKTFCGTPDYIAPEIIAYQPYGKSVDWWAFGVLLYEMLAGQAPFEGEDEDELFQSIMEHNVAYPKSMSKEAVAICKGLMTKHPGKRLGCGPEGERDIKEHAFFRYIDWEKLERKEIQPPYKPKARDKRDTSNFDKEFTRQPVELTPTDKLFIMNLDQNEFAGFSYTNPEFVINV
Sequence of Protein kinase C eta type (P24723 whole entry): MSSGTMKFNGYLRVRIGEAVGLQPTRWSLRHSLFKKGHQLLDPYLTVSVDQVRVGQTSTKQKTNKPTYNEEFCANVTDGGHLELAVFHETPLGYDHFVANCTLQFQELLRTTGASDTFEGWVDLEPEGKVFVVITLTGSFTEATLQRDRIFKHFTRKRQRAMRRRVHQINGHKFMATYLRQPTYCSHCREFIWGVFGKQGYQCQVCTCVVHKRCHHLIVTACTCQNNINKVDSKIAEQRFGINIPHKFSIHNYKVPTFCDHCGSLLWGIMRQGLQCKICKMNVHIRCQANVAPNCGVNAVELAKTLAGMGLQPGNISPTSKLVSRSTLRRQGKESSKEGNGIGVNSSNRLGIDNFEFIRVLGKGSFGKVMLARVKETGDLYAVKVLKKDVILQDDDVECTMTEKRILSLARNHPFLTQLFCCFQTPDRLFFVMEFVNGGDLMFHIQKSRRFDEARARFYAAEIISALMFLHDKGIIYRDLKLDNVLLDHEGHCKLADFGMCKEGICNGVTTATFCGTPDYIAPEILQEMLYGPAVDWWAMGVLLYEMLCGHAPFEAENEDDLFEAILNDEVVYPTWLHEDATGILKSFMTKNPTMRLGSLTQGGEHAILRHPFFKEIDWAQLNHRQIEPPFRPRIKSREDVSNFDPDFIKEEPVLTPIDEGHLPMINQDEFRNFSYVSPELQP
Sequence of Cytochrome P450 3A4 (P08684 whole entry): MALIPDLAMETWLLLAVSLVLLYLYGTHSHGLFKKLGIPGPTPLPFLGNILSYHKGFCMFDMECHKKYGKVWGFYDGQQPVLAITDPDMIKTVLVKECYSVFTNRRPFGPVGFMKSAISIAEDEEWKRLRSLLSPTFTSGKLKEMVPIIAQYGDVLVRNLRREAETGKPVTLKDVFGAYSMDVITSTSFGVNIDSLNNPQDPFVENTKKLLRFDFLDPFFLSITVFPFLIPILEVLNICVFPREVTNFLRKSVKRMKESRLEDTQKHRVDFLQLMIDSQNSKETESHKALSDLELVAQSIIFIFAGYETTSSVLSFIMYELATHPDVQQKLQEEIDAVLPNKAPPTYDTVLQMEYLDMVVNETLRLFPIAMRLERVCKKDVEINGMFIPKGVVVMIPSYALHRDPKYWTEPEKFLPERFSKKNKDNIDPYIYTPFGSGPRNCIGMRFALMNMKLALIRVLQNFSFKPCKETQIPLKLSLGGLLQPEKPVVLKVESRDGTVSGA

## O=C1NC(=O)C(c2c[nH]c3ccccc23)=C1c1nc(N2CCNCC2)nc2ccccc12
[1]
  IC50: 0.5 nM
[2]
  IC50: 0.5 nM
[3]
  IC50: 0.6 nM
[4]
  IC50: 0.9 nM
[5]
  AUC: 85 ng·h/g
[6]
  IC50: 1 nM
[7]
  IC50: 854 nM
[8]
  IC50: 51 nM
[9]
  IC50: 0.4 nM

## Cn1cc(C2=C(c3nc(N4CCNCC4)nc4ccccc34)C(=O)NC2=O)c2ccccc21
[10]
  AUC: 1729 ng·h/g
[11]
  microsomal CLint: 112 µL/min/mg
[1]
  IC50: 1.2 nM
[12]
  solubility: 195 µg/mL (≈ 445 µM)
[2]
  IC50: 1.4 nM
[13]
  AUC/dose: 161 ng·h/mL
[3]
  IC50: 1.4 nM
[14]
  clearance: 25 mL/min/kg
[15]
  Vd: 10 L/kg
[4]
  IC50: 3.8 nM
[16]
  logD: 0.6
[17]
  efflux ratio: 64.4
[18]
  Tmax: 30 min
[6]
  IC50: 3.3 nM
[7]
  IC50: 378 nM
[19]
  half-life: 276 min
[20]
  AUC/dose: 671 ng·h/mL
[8]
  IC50: 99 nM
[21]
  logP: 2.3
[9]
  IC50: 1 nM
[22]
  bioavailability: 24%

## CN1CCN(c2nc(C3=C(c4c[nH]c5ccccc45)C(=O)NC3=O)c3ccccc3n2)CC1 [SOTRASTAURIN]
[10]
  AUC: 1952 ng·h/g
[23]
  AUC: 20478 ng·h/g
[11]
  microsomal CLint: 505 µL/min/mg
[24]
  half-life: 288 min
[12]
  solubility: 19 µg/mL (≈ 43.3 µM)
[13]
  AUC/dose: 110 ng·h/mL
[25]
  Tmax: 8 h
[26]
  Vd: 5.9 L/kg
[27]
  AUC: 30887 ng·h/g
[28]
  AUC/dose: 72 ng·h/mL
[29]
  solubility: 780 µg/mL (≈ 1780 µM)
[30]
  solubility: 530 µg/mL (≈ 1210 µM)
[16]
  logD: 2.4
[31]
  bioavailability: 19%
[32]
  bioavailability: 18%
[33]
  AUC/dose: 720 ng·h/mL
[34]
  AUC/dose: 128 ng·h/mL
[35]
  Tmax: 30 min
[36]
  microsomal CLint: 433 µL/min/mg
[37]
  fraction unbound: 0.011
[38]
  AUC: 12644 ng·h/g
[7]
  IC50: 150 nM
[20]
  AUC/dose: 326 ng·h/mL
[39]
  Papp: 4.5 ×10⁻⁶ cm/s
[8]
  IC50: 37 nM
[40]
  solubility: 410 µg/mL (≈ 935 µM)
[41]
  fraction unbound: 0.024
[21]
  logP: 2.9
[42]
  half-life: 150 min
[43]
  microsomal CLint: 248 µL/min/mg
[44]
  Ki: 2900 nM
[45]
  clearance: 23 mL/min/kg
[46]
  clearance: 45 mL/min/kg
[47]
  fold change (FC): 2
[48]
  AUC/dose: 371 ng·h/mL
[49]
  Vd: 3.1 L/kg
